Test results reported in paper PMC11320734 (ACS Pharmacology & Translational Science, 2024).
Entries after “also recorded” stand apart in the source; their conditions may differ. Read-outs that look alike come from different tables or passages of the source.

What was measured:
hCB1R [1] = molecular target: T1, hCB1R (Homo sapiens, UniProt P21554); assay: cell-based; conditions: Table 1; mean ± SD; read-out: EC50 hCB1R (cAMP assay)
PPARg = PPARg (Homo sapiens, UniProt P37231); assay: Endocannabinoid target profiling: PPARg; conditions: Table S1; read-out: PPARg (Ki, IC50)
GSH adduct formation = assay type: in vitro ADME, human
Description: Cytochrome P450 (CYP) assays were conducted as previously described.[41] In brief, RNB-61 was incubated at a range of concentrations with the following components: pooled human liver microsomes, CYP probe substrate around the reported Km, and NADPH with a final concentration: 1 mM in 100 mM sodium phosphate buffer (pH 7.4). The conditions were optimized for a linear metabolic rate for the probe substrate reactions. The analysis of the samples was carried out by LC-MS/MS. The assays generated two endpoints: IC50 (μM) and percent inhibition at the highest acceptable test concentration (typically 50 μM; lower if the highest concentration data are rejected due to insolubility). […] (GSH) adduct formation data was assessed as reported in a previous study.[42] Briefly, RNB-61 was incubated with human liver microsomes to form reactive metabolites, and glutathione was added as a nucleophile to convert the reactive metabolites into stable conjugates that could be analyzed by MS.

[2] = Fraction unbound in plasma; assay type: in vitro ADME
Excerpt: Table 3 Physicochemical and ADMET Properties of RNB-61 | column: 481.556

[3] = Single-dose pharmacokinetics in mice; assay type: in vivo; conditions: mouse, plasma
Description: (§1) To characterize the pharmacokinetic behavior of RNB-61, studies in rodents were conducted at the in vivo facility of F. Hoffmann-La Roche Ltd. (Basel, Switzerland). The plasma-concentration time profile was studied in rodents after single-dose RNB-61 administration by oral gavage (p.o. microsuspension excipients 7.5% gelatin/0.62% NaCl) and intravenous bolus injection (i.v. solution, excipients NMP:NaCl (30:70)). Three groups of male Wistar rats (n = 2 per group) were administered RNB-61 either at 1 mg kg^–1 i.v., 3 mg kg^–1 p.o., or 26 mg kg^–1 p.o. Plasma samples were drawn at 0.083, 0.25, 0.5, 1, 2, 4, 8, and 24 postdose in the i.v. group and at 0.25, 0.5, 0.75, 1.5, 3, 5, 8, and 24 h postdose in the p.o. groups. The samples were analyzed for RNB-61 concentration by LC/MS-MS. For the LC/MS-MS analysis, and the samples were prepared by adding 100 uL to 400 uL ACN with ISTD (100 ng/mL Bosantan in ACN/MeOH 1/1), stirring, and centrifuging (4000 rpm, 65’). 100 uL of the supernatant were pipetted and diluted with 400 μL H2O at pH 3. The analytes were separated on a Restek C18 column (5 μm, 1.0 × 3 mm). The mobile phase consisted of water containing 0.1% HCOOH as solvent A and ACN containing 0.1% HCOOH as solvent B. The gradient curve starting with 5% B was changed to 90% B between 0.4 and 0.6 min and further increased to 95% B between 0.6 and 1.2 min. This was maintained until 1.4 min and then reduced and kept at 5% B between 1.45 and 2.0 min. The mass spectrometer was operated in the positive mode. All LC-MS/MS was done using the Agilent RapidFire Analyzer software (version 4.3). The pharmacokinetic parameters were estimated by noncompartmental analysis in the Certara WinNonlin software (version 5.3). A similar study design was run in mice with three groups receiving 2 mg kg^–1 i.v., 4 mg kg^–1 p.o., or 26 mg kg^–1 p.o., and plasma sampling occurring in a composite profile (n = 2 for each time point) up to 7 or 24 h postdose. Male C57/BL6 mice (n = 5 per group) were used to study the influence of P-gp efflux on brain penetration. Two groups of mice were administered RNB-61 by i.v. bolus injection at 1 mg kg^–1 (2 groups). In order to block P-gp activity, an i.v. bolus of 5 mg kg^–1 tariquidar[46] was injected into one group 30 min prior to RNB-61. Plasma was collected at 0.083, 0.25, 0.5, 2, 4, and 7 h postdose in a composite profile. Brain, CSF, and vitreous body were collected at terminal time points 0.5, 2, 4, and 7 h postdose.

[4] = Brain penetration study with/without P-gp inhibitor tariquidar; assay type: in vivo, male C57/BL6 mice
Description: as §1

P-gp = assay: as above; assay type: in vivo, male C57/BL6 mice; conditions: male, C57/BL6, mouse, with tariquidar 5 mg kg^–1 i.v. bolus, 30 min prior to RNB-61
Description: as §1

hCB1R [5] = molecular target: T1, hCB1R; assay: Competition binding assay with [3H]-CP55940, HEK cell membranes; conditions: read-out: Ki hCB1R (binding assay); [3H]-CP55940 competition; mean ± SD
Description: Competition and saturation binding assays were performed using the radiolabeled CB1R/CB2R agonist [^3H]-CP55940 (PerkinElmer).
Binding reactions were terminated by vacuum filtration onto 0.5% polyethylenimine presoaked GF/B filter plates (Packard) using a Filtermate cell harvester followed by 6 brief washes with 0.3 mL/well of ice-cold wash buffer. Wash buffer comprising 50 mmol L^–1 Tris- HCl, 5 mmol L^–1 MgCl2, 2.5 mmol L^–1 EDTA, and 0.5% fatty acid-free BSA, pH 7.4. Plates were dried at 50 °C for 1 h and liquid scintillation counting was used to determine levels of bound radiolabel. IC50 values and Hill slopes were determined with a 4-parameter logistic model using ActivityBase (ID Business Solution, Guilford, UK) and pKi values were determined using the Cheng–Prusoff equation as shown below: [drawing 1] where S indicates the concentration of the substrate and Km depicts the affinity constant of the substrate.

[6] = RNB-61 1 mg kg^–1 i.v. + tariquidar 5 mg kg^–1 i.v.
[7] = RNB-61 1 mg kg^–1 i.v., no tariquidar

T1 sequence (P21554 whole entry): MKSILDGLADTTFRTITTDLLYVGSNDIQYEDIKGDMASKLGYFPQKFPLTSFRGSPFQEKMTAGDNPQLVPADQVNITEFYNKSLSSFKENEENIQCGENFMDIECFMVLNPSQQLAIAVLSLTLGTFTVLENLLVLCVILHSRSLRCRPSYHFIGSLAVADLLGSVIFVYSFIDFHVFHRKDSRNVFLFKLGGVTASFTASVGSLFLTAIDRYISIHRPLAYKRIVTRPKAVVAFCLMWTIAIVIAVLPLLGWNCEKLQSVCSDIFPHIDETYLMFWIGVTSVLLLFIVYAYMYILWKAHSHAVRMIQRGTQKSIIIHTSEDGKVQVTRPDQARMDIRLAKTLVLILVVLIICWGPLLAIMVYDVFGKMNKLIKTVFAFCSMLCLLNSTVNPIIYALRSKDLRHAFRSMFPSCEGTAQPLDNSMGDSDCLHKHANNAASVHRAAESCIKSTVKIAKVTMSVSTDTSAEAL
PPARg, sequence (P37231 whole entry, species assumed): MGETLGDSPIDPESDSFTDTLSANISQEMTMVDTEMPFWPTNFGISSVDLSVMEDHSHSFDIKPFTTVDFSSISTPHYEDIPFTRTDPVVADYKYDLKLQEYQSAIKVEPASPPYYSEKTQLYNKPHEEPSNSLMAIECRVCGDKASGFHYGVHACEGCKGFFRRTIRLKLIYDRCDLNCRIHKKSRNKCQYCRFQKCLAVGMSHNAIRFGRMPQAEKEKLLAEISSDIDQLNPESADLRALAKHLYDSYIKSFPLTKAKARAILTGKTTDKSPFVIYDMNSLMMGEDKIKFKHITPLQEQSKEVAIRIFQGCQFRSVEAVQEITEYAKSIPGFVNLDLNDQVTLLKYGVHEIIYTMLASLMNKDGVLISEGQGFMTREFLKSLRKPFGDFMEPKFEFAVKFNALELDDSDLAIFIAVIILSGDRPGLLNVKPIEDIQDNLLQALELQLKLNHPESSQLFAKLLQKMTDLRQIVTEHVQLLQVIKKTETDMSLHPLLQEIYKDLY

With `Cn1c(C(C)(C)C)cc(=NC(=O)c2cc(C(F)(F)F)ccc2OCC(C)(C)O)n1CC1CCC1` [RNB-61] the EC50 (hCB1R [1]) was over 10 µM, the IC50 (PPARg) was over 10 µM and the “GSH adducts (human liver microsomes)” value (GSH adduct formation) was “did not form any adducts; also recorded: no adducts detected”. It also gave a fraction unbound ([2]; human) of 0.019, a fraction unbound ([2]; mouse) of 0.019 and a fraction unbound ([2]; rat) of 0.017. It also gave an AUC(0-inf) ([3]; iv, 2 mg kg^–1 i.v.) of 8630 ng·h/mL, a Cmax ([3]; iv, 2 mg kg^–1 i.v.) of 1170 ng/mL and a Tmax ([3]; iv, 2 mg kg^–1 i.v.) of 0.25 h. For the same compound, the clearance ([3]; iv, 2 mg kg^–1 i.v.) was 3.9 mL/min/kg, the half-life ([3]; iv, 2 mg kg^–1 i.v.) was 7.7 h and the Vd ([3]; iv, 2 mg kg^–1 i.v., read-out: Vss) was 2.4 L/kg. The AUC(0-inf) ([3]; po, 4 mg kg^–1 p.o.) was 9300 ng·h/mL, the Cmax ([3]; po, 4 mg kg^–1 p.o.) was 843 ng/mL and the Tmax ([3]; po, 4 mg kg^–1 p.o.) was 2 h. It also gave a bioavailability ([3]; po, 4 mg kg^–1 p.o.) of 54%, a half-life ([3]; po, 4 mg kg^–1 p.o.) of 6.4 h and an AUC(0-inf) ([3]; po, 26 mg kg^–1 p.o.) of 47300 ng·h/mL. It also gave a Cmax ([3]; po, 26 mg kg^–1 p.o.) of 4370 ng/mL, a Tmax ([3]; po, 26 mg kg^–1 p.o.) of 2 h and a bioavailability ([3]; po, 26 mg kg^–1 p.o.) of 42%. The half-life ([3]; po, 26 mg kg^–1 p.o.) was 4.3 h, the “AUClast lower in the brain compared to plasma” value ([4]; 1 mg kg^–1 i.v., no tariquidar) was over 10 fold and the “peak brain concentration lower compared to plasma level” value ([4]; 1 mg kg^–1 i.v., no tariquidar) was over 20 fold. For the same compound, the “brain AUCinf” value [4, 6] was 4386 ng·h/mL, the “brain AUClast” value [4, 6] was 1877 ng·h/mL and the “brain Cmax” value [4, 6] was 342 ng/mL. The “brain AUCinf” value [4, 7] was 375 ng·h/mL, the “brain AUClast” value [4, 7] was 215 ng·h/mL and the “brain Cmax” value [4, 7] was 41.3 ng/mL. For the same compound, the half-life ([4]; male, C57/BL6, mouse, brain, iv, RNB-61 1 mg kg^–1 i.v., no tariquidar, read-out: brain T1/2 (converted)) was 5.98 h, the Tmax ([4]; male, C57/BL6, mouse, brain, iv, RNB-61 1 mg kg^–1 i.v., no tariquidar, read-out: brain Tmax) was 0.58 h and the Kp ([4]; male, C57/BL6, mouse, iv, ratio of AUClast in brain and plasma, 1 mg kg^–1 i.v., no tariquidar, read-out: brain-plasma partition coefficient Kp) was 0.088. It also gave a Cmax ([4]; male, C57/BL6, mouse, plasma, iv, RNB-61 1 mg kg^–1 i.v., no tariquidar) of 972 ng/mL, an AUC(0-inf) ([4]; male, C57/BL6, mouse, plasma, iv, RNB-61 1 mg kg^–1 i.v., no tariquidar, read-out: plasma AUCinf) of 3320 ng·h/mL and an AUC(0-t) ([4]; male, C57/BL6, mouse, plasma, iv, RNB-61 1 mg kg^–1 i.v., no tariquidar, read-out: plasma AUClast) of 2430 ng·h/mL. It also gave a clearance ([4]; male, C57/BL6, mouse, plasma, iv, RNB-61 1 mg kg^–1 i.v., no tariquidar, read-out: plasma CL (converted)) of 5.02 mL/min/kg, a half-life ([4]; male, C57/BL6, mouse, plasma, iv, RNB-61 1 mg kg^–1 i.v., no tariquidar, read-out: plasma T1/2 (converted)) of 4 h and a Tmax ([4]; male, C57/BL6, mouse, plasma, iv, RNB-61 1 mg kg^–1 i.v., no tariquidar, read-out: plasma Tmax) of 0.25 h. For the same compound, the “brain Cmax and AUClast higher with tariquidar than RNB-61 alone” value ([4]; tariquidar 5 mg kg^–1) was about 10 fold, the half-life (P-gp; brain, iv, RNB-61 1 mg kg^–1 i.v. + tariquidar 5 mg kg^–1 i.v., read-out: brain T1/2 (converted)) was 8.42 h and the Tmax (P-gp; brain, iv, RNB-61 1 mg kg^–1 i.v. + tariquidar 5 mg kg^–1 i.v., read-out: brain Tmax) was 0.53 h. It also gave a Kp (P-gp; intravenous, ratio of AUClast in brain and plasma, + tariquidar 5 mg kg^–1, read-out: brain-plasma partition coefficient Kp) of 0.747, a Cmax (P-gp; plasma, iv, RNB-61 1 mg kg^–1 i.v. + tariquidar 5 mg kg^–1 i.v.) of 737 ng/mL and an AUC(0-inf) (P-gp; plasma, iv, RNB-61 1 mg kg^–1 i.v. + tariquidar 5 mg kg^–1 i.v., read-out: plasma AUCinf) of 3560 ng·h/mL. For the same compound, the AUC(0-t) (P-gp; plasma, iv, RNB-61 1 mg kg^–1 i.v. + tariquidar 5 mg kg^–1 i.v., read-out: plasma AUClast) was 2510 ng·h/mL, the clearance (P-gp; plasma, iv, RNB-61 1 mg kg^–1 i.v. + tariquidar 5 mg kg^–1 i.v., read-out: plasma CL (converted)) was 4.68 mL/min/kg and the half-life (P-gp; plasma, iv, RNB-61 1 mg kg^–1 i.v. + tariquidar 5 mg kg^–1 i.v., read-out: plasma T1/2 (converted)) was 3.68 h. For the same compound, the Tmax (P-gp; plasma, iv, RNB-61 1 mg kg^–1 i.v. + tariquidar 5 mg kg^–1 i.v., read-out: plasma Tmax) was 0.083 h and the Ki (hCB1R [5]) was 3.88 ± 0.0734 µM.
